# In patent publication US12448388B2, “PRMT5 inhibitors and uses thereof” (Gilead Sciences, Inc., priority 2023, dated 2025):
# “And” between values parts separate entries of the source, which are not always exact repeats. Equal entries are not always repeated. Where two headings read alike, the source gives them in different places.
# Legend:
# [1] = system: HCT116 MTAP-deleted cell lines; experiment: Cell viability assay (CellTiter-Glo, 7 days), HCT116 MTAP-deleted; format: cell-based; settings: for Selectivity: HCT116 WT CC50 versus HCT116 MTAP^del CC50; for plasma-adjusted CC50 (paCC50): paCC50 = CC50-HCT116-MTAP^del * (% free CCM/% free human plasma); for CC50: Homo sapiens, HCT116 MTAP-deleted
# Method in brief: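 Dose-response, PRMT5 inhibitors from DMSO serial dilution, pre-spotted; cells seeded onto compound plates. 7 d, 37 °C/5% CO2/90% RH. Readout: CTG luminescence → CC50.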
# [2] = Hepatocyte stability assay, human; format: in vitro ADME; settings: human hepatocytes, 1 μM
# Method in brief: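 Cryopreserved hepatocytes (viability ≥85%) incubated with 1 μM compound at 1×10^6 cells/mL in KHB, 37 °C, 95% air/5% CO2, sampled at 0, 1, 3 and 6 h. Parent remaining quantified by LC-MS/MS; half-life from first-order exponential fit (ln2/k), scaled to intrinsic hepatic clearance.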
# [3] = Hepatocyte stability assay, cynomolgus monkey; format: in vitro ADME
# Method: BioreclamationIVT (Baltimore, MD) provided the cryopreserved hepatocytes, hepatocyte thawing (HT) medium, and Krebs-Henseleit buffer (KHB) medium. The stock solution concentration was 1 M in DMSO and was then diluted further in acetonitrile/water (1:1 v/v). All other chemicals were purchased from Sigma-Aldrich (St. Louis, MO) or Thermo Fisher Scientific (Waltham, MA).
# The quench solution used to stop reactions in the hepatocyte incubations was comprised of 100% (v/v) acetonitrile. Internal Standard/Quench (IS/Q) solution used to stop reactions with the positive control also contained 200 nM Labetalol.
# Metabolic Stability in Cryopreserved Hepatocytes: Test compounds, or the positive control metabolic substrate, was incubated in suspensions of cryopreserved hepatocytes at a final concentration of 1 μM. Vials containing cryopreserved hepatocytes were removed from liquid nitrogen and immediately immersed in a 37° C. water bath. The vials were swirled gently until the contents had thawed. They were then immediately emptied into 48 mL of pre-warmed thawing medium in a 50 mL conical tube. Cells remaining in the vial were re-suspended with 1.0 mL of pre-warmed thawing medium and added to the conical tube. The tube was capped and then gently inverted several times to re-suspend the hepatocytes. The cell suspension was centrifuged at 500×g for 10 minutes at room temperature and the supernatant discarded. The cell pellet was loosened by gently swirling the centrifuge tube. Non-supplemented KHB medium was added to obtain the appropriate target cell density. The viabilities of all cell preparations were ≥85%, assessed by Trypan blue dye exclusion.
# For incubations, aliquots of hepatocyte suspension (250 μL containing a cell concentration of 2×10^6 cells/mL) were added to 250 μL of 2 μM substrate (test compound or positive control) in supplemented KHB in duplicate wells in a 24-well plate. Final concentration in the incubations were 1×10^6 cells/mL and 1 μM substrate. A cell-free control incubation (KHB only) was also included. The incubations were carried out with gentle shaking in a 37° C. incubator under a humid atmosphere of 95% air/5% CO2 (v/v). Aliquots (100 μL) were removed after 0, 1, 3, and 6 hours and added to 200 μL quenching solution. The samples were then placed on a shaker for 10 min followed by centrifugation at 3000×g for 20 min. The supernatant was transferred to a new plate and diluted with 100 μL of water to reduce the organic content and then placed on a shaker for 10 mins. Samples were injected and analyzed with methods described below.
# Liquid Chromatography: Quantification of positive control and test compound was performed by analyte/internal standard peak area ratios (PAR) measured on a Thermo Scientific™ Q Exactive™ Hybrid Quadrupole-Orbitrap Mass Spectrometer MS/MS with an electrospray interface operating in positive ion mode. The mass spectrometer was coupled to a Dionex Ultimate® 3000 HPLC system. Samples (10 μL aliquots) were injected with a Leap Technologies HTC PAL autosampler. For positive control, the column used was a Thermo Scientific™ Hypersil GOLD™ HPLC column ([…], 50×2.1 mm). Mobile phase A consisted of 95% (v/v) water, 5% (v/v) acetonitrile, and contained 0.1% (v/v) formic acid (FA). Mobile phase B consisted of 95% (v/v) acetonitrile, 5% (v/v) water, and contained 0.1% (v/v) FA. Elution was achieved, at a flow rate of 0.5 mL/min, by a series of linear gradients: initial condition was 5% B at 0 min, isocratic for 20 seconds; then linear gradient to 95% B over 90 seconds, followed by isocratic for 60 seconds at 95% B, and re-equilibrated to initial conditions over 70 seconds.
# Metabolic stabilities of positive control and test compound were determined by measuring the rates of disappearance of the parent with time by determining the % of parent remaining at time t (Ct) {Obach 1997}.
# Data (% of parent remaining) were plotted on a semi-log scale and fitted using an exponential fit: […]
# [4] = PBS solubility (kinetic solubility from DMSO stocks); format: physicochemical; settings: 22 °C, aqueous buffer, kinetic from dmso stock; 1x PBS pH 7.4, 1.0% DMSO, 24-hour incubation at ambient temperature
# Method in brief: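 Kinetic solubility in 1× PBS pH 7.4 with 1.0% final DMSO, maximum theoretical concentration 100 μM from 10 mM stock. After 24 h at ambient temperature (20.8-24.0 °C) the samples were vacuum-filtered and filtrates quantified by nitrogen detection against a calibration curve. Values were background-corrected and reported in μM and μg/mL.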
# [5] = HCT-116, * Calculated using Low throughput hEQDS
# [6] = HCT-116, 168 h, 7 days of treatment, CTG, read-out: CC50-HCT116-MTAP^del
# [7] = HCT-116, cell viability, class symbols, read-out: CC50
# [8] = HCT-116, cell viability assay, class symbols, read-out: CC50
SMILES,Selectivity [1],"plasma-adjusted CC50 (paCC50) [1, 5] [nM]","CC50 [1, 6] [nM]","CC50 [1, 7] [nM]",Human Predicted Hepatocyte CL [2] [L/h/kg],Predicted Hepatocyte CL [3],solubility at 24 h [4] [µM],plasma-adjusted CC50 (paCC50) ([1]; HCT-116) [nM],"CC50 [1, 8] [nM]"
"Nc1nc2cc(F)c(C(=O)N3CCC[C@@H]4Oc5cc(C(F)(F)F)ccc5[C@@H]43)cc2n2cncc12 [Ff-104, (4-amino-7-fluoroimidazo[1,5-a]quinoxalin-8-yl)((4aS,9bS)-7-(trifluoromethyl)-3,4,4a,9b-tetrahydrobenzofuro[3,2-b]pyridin-1(2H)-yl)methanone]",94,139,5,< 100,0.5,0.29 L/h/kg and 0.28 L/h/kg,< 1,,
"Nc1nc2ccc(C(=O)N3CCC[C@@H]4Oc5cc(C(F)(F)F)ccc5[C@@H]43)cc2n2cncc12 [Ff-111, (4-aminoimidazo[1,5-a]quinoxalin-8-yl)((4aS,9bS)-7-(trifluoromethyl)-3,4,4a,9b-tetrahydrobenzofuro[3,2-b]pyridin-1(2H)-yl)methanone]",110,,10,< 100,0.35,0.28 L/h/kg,1.1,139,
"Nc1nc2cnc(C(=O)N3CCC[C@@H]4Oc5cc(OC(F)(F)F)cc(F)c5[C@@H]43)cc2n2cncc12 (single isomer, unassigned) [Fg-55]",89,190,9,,0.24,0.25 L/h/kg,13.7,,< 100
"Nc1nc2cnc(C(=O)N3CCC[C@@H]4Oc5cc(OC(F)(F)F)ccc5[C@@H]43)cc2n2cncc12 [Ff-341, (4-aminoimidazo[1,5-a]pyrido[3,4-e]pyrazin-8-yl)((4aS,9bS)-7-(trifluoromethoxy)-3,4,4a,9b-tetrahydrobenzofuro[3,2-b]pyridin-1(2H)-yl)methanone]",79,,9,< 100,0.22,0.34 L/h/kg,1.7,150,
"Cc1ncn2c1c(N)nc1cnc(C(=O)N3CCC[C@@H]4Oc5cc(C(F)(F)F)ccc5[C@@H]43)cc12 [Ff-499, (4-amino-3-methylimidazo[1,5-a]pyrido[3,4-e]pyrazin-8-yl)((4aS,9bS)-7-(trifluoromethyl)-3,4,4a,9b-tetrahydrobenzofuro[3,2-b]pyridin-1(2H)-yl)methanone]",69,,13,,0.25,0.92 L/h/kg,< 1,168,< 100
"Nc1nc2cnc(C(=O)N3CC[C@H]4C[C@@H]3c3ccc(C(F)(F)F)cc3O4)cc2n2cncc12 [Ff-367, (4-aminoimidazo[1,5-a]pyrido[3,4-e]pyrazin-8-yl)((2S,6R)-9-(trifluoromethyl)-3,4-dihydro-2H-2,6-methanobenzo[b][1,5]oxazocin-5(6H)-yl)methanone]",77,,12,< 100,0.16,,34.9,199,
"C[C@H]1CN(C(=O)c2cc3c(cc2F)nc(N)c2cncn23)[C@H]2c3cc(F)c(C(F)F)cc3C[C@H]2O1 (single isomer, unassigned) [Ff-173]",64,,35,< 100,0.18,,9.9,1160,
"Nc1nc2cnc(C(=O)N3CC[C@H]4C[C@@H]3c3ccc(OC(F)(F)F)cc3O4)cc2n2cncc12 [Ff-685, (4-aminoimidazo[1,5-a]pyrido[3,4-e]pyrazin-8-yl)((2S,6R)-9-(trifluoromethoxy)-3,4-dihydro-2H-2,6-methanobenzo[b][1,5]oxazocin-5(6H)-yl)methanone]",71,,16,,0.29,,16.1,357,< 100
"Cc1ncc2c(N)nc3cnc(C(=O)N4CCC[C@@H]5Oc6cc(OC(F)(F)F)ccc6[C@@H]54)cc3n12 [Ff-340, (4-amino-1-methylimidazo[1,5-a]pyrido[3,4-e]pyrazin-8-yl)((4aS,9bS)-7-(trifluoromethoxy)-3,4,4a,9b-tetrahydrobenzofuro[3,2-b]pyridin-1(2H)-yl)methanone]",107,,23,< 100,0.3,0.2 L/h/kg,< 1,298,
"Nc1nc2cnc(C(=O)N3CC[C@H]4C[C@@H]3c3c(F)cc(C(F)(F)F)cc3O4)cc2n2cncc12 (single isomer, unassigned) [Ff-694]",72,,10,,0.21,,50.2,120,
"C[C@@H]1CN(C(=O)c2cc3c(cc2F)nc(N)c2cncn23)[C@H]2c3ccc(OC(F)(F)F)cc3C[C@H]2O1 (single isomer, unassigned) [Ff-183]",57,,15,< 100,0.18,,1.6,257,
